Key:
SOD [1] = test: SOD activity of rat liver extract (SOD Assay Kit-WST); type: in vivo, SD rat; details: liver extract of rats fed thirty days with sugar alcohol 0-10% in feed (Example 2)
From the text: RNA was extracted from a root of the Arabidopsis thaliana grown by a culture medium which contains a MS culture medium composition having sucrose at a concentration of 2% and a series of test substances at a final concentration of 0-2% each. This extracted specimen was supplied to the DNA microarray. In addition, RNA was extracted from the hepatocytes of SD rat grown with feed which contains a control feed having cornstarch as the main ingredient and a sugar alcohol as a series of test substances at a final concentration of 0-10%. This extracted specimen was supplied to the DNA microarray in the same way as described above. The protein of the ROS-scavenging enzyme in the model organism cells was separated and purified using AKT Aexplorer (FPLC). SOD activity measurements were carried out according to a standard protocol using SOD Assay Kit-WST. The livers of the rats fed in Example 2 each was crushed and then extracted with normal saline solution, and then freeze-dried. SOD activity was determined according to the same way as described in Example 3. […] In particular, the SOD activity of the erythritol-added group increased by 2 times.

[2] = test system: Cu/Zn-type SODs and SOD Cu Chaperone genes; test: Transcriptomics with rat DNA chip on hepatocyte total RNA of fed rats; type: in vivo; details: hepatocytes of SD rats fed thirty days with feed containing sugar alcohol at final concentration 0-10%
From the text: The DNA microarray is a partial sequence of DNA arranged and fixed in a high-density manner on a slide glass which is divided into from several tens of thousands to hundreds of thousands. By using this, an expressed gene can be detected. Arabidopsis thaliana and a rat were used as model organisms. These organisms each was cultivated or bred with an arbitrary test substance and then an mRNA extracted from the cells of the cultivated or bred organism was hybridized with a target which is changed into cDNA with a reverse transcriptase. By carrying out this procedure, gene information expressed in the model organism was detected comprehensively, this procedure is so-called a transcriptomics. Furthermore, separation and purification of the protein of the ROS-scavenging enzyme in the model organisms' cells and determination of the enzyme activity were carried out, whereby the results obtained from the transcriptomics were directly verified. RNA was extracted from a root of the Arabidopsis thaliana grown by a culture medium which contains a MS culture medium composition having sucrose at a concentration of 2% and a series of test substances at a final concentration of 0-2% each. This extracted specimen was supplied to the DNA microarray. In addition, RNA was extracted from the hepatocytes of SD rat grown with feed which contains a control feed having cornstarch as the main ingredient and a sugar alcohol as a series of test substances at a final concentration of 0-10%. This extracted specimen was supplied to the DNA microarray in the same way as described above. The protein of the ROS-scavenging enzyme in the model organism cells was separated and purified using AKT Aexplorer (FPLC). SOD activity measurements were carried out according to a standard protocol using SOD Assay Kit-WST. Rats were fed for thirty days with a control diet containing 552.5 parts by weight of cornstarch, 250 parts by weight of casein, 35 parts by weight of mineral, 10 parts by weight of vitamin mixture, 2.5 parts by weight of choline bitartrate, 50 parts by weight of corn oil and 100 parts by weight of powdered cellulose, or feedstuffs containing the same composition as described in the control diet except that a portion of the powdered cellulose was replaced with the series of sugar alcohols so that the feedstuffs contain sugar alcohols at the final concentration of 0-10% each. The livers were taken out of the killed SD system rats and the total RNA was extracted from the hepatocytes, and transcriptomics was conducted using a rat DNA chip (the number of loading genes: 21,205, the number of probes per gene: 9, probe length: 60mer) of GeneFrontier Corporation.

SOD [3] = test: SOD activity of Arabidopsis thaliana root extract (SOD Assay Kit-WST); type: in vivo; details: root extract of Arabidopsis thaliana grown with sugar alcohol 0-2% (Example 1)
From the text: RNA was extracted from a root of the Arabidopsis thaliana grown by a culture medium which contains a MS culture medium composition having sucrose at a concentration of 2% and a series of test substances at a final concentration of 0-2% each. This extracted specimen was supplied to the DNA microarray. In addition, RNA was extracted from the hepatocytes of SD rat grown with feed which contains a control feed having cornstarch as the main ingredient and a sugar alcohol as a series of test substances at a final concentration of 0-10%. This extracted specimen was supplied to the DNA microarray in the same way as described above. The protein of the ROS-scavenging enzyme in the model organism cells was separated and purified using AKT Aexplorer (FPLC). SOD activity measurements were carried out according to a standard protocol using SOD Assay Kit-WST. The roots of the Arabidopsis thaliana grown in Example 1 were crushed and water-extracted and then freeze-dried. Then each of the dried extract was dissolved in the buffer solution of 0.1M calcium phosphate to obtain a specimen. The SOD activity was determined according to a standard protocol using SOD Assay Kit-WST (Dojin Kagaku Kenkyu-Sho). […] In particular, the SOD activity of the erythritol-added group increased by 2-5 times.

[4] = test system: Cu/Zn-type SODs and SOD Cu Chaperone genes; test: Transcriptomics with Arabidopsis thaliana DNA chip on root total RNA; type: in vivo; details: root of Arabidopsis thaliana grown on 2% sugar-containing MS medium with sugar alcohol at final concentration 0-2%
From the text: The DNA microarray is a partial sequence of DNA arranged and fixed in a high-density manner on a slide glass which is divided into from several tens of thousands to hundreds of thousands. By using this, an expressed gene can be detected. Arabidopsis thaliana and a rat were used as model organisms. These organisms each was cultivated or bred with an arbitrary test substance and then an mRNA extracted from the cells of the cultivated or bred organism was hybridized with a target which is changed into cDNA with a reverse transcriptase. By carrying out this procedure, gene information expressed in the model organism was detected comprehensively, this procedure is so-called a transcriptomics. Furthermore, separation and purification of the protein of the ROS-scavenging enzyme in the model organisms' cells and determination of the enzyme activity were carried out, whereby the results obtained from the transcriptomics were directly verified. RNA was extracted from a root of the Arabidopsis thaliana grown by a culture medium which contains a MS culture medium composition having sucrose at a concentration of 2% and a series of test substances at a final concentration of 0-2% each. This extracted specimen was supplied to the DNA microarray. In addition, RNA was extracted from the hepatocytes of SD rat grown with feed which contains a control feed having cornstarch as the main ingredient and a sugar alcohol as a series of test substances at a final concentration of 0-10%. This extracted specimen was supplied to the DNA microarray in the same way as described above. The protein of the ROS-scavenging enzyme in the model organism cells was separated and purified using AKT Aexplorer (FPLC). SOD activity measurements were carried out according to a standard protocol using SOD Assay Kit-WST. Total RNA was extracted from the root of Arabidopsis thaliana grown by a culture medium containing a 2% sugar-containing MS culture medium composition and a series of sugar alcohols at a final concentration of 0-2% each. Transcriptomics was conducted using a Arabidopsis thaliana DNA chip (the number of loading genes: 30,480 genes, the number of probe/gene: 6, probe length: 60mer) of GeneFrontier Corporation.

Row | Compound | SOD activity compared to the control group (SOD [1]) | expression of Cu/Zn-type SODs and SOD Cu Chaperone genes [2] | SOD activity compared to the control group (SOD [3]) | expression of Cu/Zn-type SODs and SOD Cu Chaperone genes [4] | increase of SOD activity compared to the control group (SOD [1]) [times] | increase of SOD activity compared to the control group (SOD [3])
1 | OC[C@@H](O)[C@H](O)[C@@H](O)CO [xylitol] | promotion of the SOD activity was seen | up-regulated | promotion of the SOD activity was seen | up-regulated |  | 
2 | OC[C@@H](O)[C@@H](O)[C@H](O)[C@@H](O)CO [sorbitol] | promotion of the SOD activity was seen | up-regulated | promotion of the SOD activity was seen | up-regulated |  | 
3 | OC[C@@H](O)[C@@H](O)CO [erythritol] | promotion of the SOD activity was seen | up-regulated | promotion of the SOD activity was seen | up-regulated | 2 | 2-5 times
4 | OC[C@@H](O)[C@@H](O)[C@H](O)[C@H](O)CO [mannitol] | promotion of the SOD activity was seen | up-regulated | promotion of the SOD activity was seen | up-regulated |  | 

Source: patent US20100037353A1, “METHOD FOR IMPROVING ACTIVITY OF REACTIVE OXYGEN SPECIES SCAVENGING ENZYMES” (B Food Science Co., Ltd., priority 2007, published 2010)
